pIC50: −log10 of the molar value. “And” between values parts separate entries of the source, which are not always exact repeats. Identical values can stand only once. Values belong to the molecule of their own block, whether it stands above or below them.
How the values were obtained:
human URAT1 = human URAT1 (Homo sapiens (Human), UniProt Q96S37); assay: URAT1 inhibition assay: [8-14C] urate uptake in hURAT1-HEK cells; format: cell-based; conditions: for inhibition at 10 µM: hURAT1-HEK cells; for pIC50: 14C urate uptake in hURAT1-HEK cells
human URAT1, sequence (Q96S37 whole entry): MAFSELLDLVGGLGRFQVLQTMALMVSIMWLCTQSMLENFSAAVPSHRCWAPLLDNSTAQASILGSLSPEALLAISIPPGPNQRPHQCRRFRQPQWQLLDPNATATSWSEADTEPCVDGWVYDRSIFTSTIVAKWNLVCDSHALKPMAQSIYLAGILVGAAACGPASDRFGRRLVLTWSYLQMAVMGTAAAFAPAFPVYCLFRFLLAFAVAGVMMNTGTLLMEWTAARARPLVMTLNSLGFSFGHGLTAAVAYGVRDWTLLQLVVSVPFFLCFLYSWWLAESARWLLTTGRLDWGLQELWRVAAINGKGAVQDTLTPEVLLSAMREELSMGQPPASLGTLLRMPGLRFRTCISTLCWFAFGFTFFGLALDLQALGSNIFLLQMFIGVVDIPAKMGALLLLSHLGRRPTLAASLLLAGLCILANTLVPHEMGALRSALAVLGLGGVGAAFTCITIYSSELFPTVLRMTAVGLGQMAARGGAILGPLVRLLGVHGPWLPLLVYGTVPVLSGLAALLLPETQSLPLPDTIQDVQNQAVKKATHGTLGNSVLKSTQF
Protocol: URAT1 (Uric Acid Transporter 1) is expressed on the apical membrane in renal tubules. It mediates the re-uptake of uric acid from the urine into the blood.
A suitable assay involves transfection of cells (e g human embryonic kidney cells; “HEK”) with a vector encoding human URAT1, followed by determination of the ability of transfected cells to take up radiolabeled uric acid. The activity of compounds as URAT1 inhibitors is evaluated by their ability to block uric acid uptake by transfected cells.
Test Compounds and Chemicals:
Urate (50-60 mCi/mmol; American Radio Chemicals, Cat. No. ARC0513).
Subcloning of hURAT1 into the Expression Vector:
Plasmid vector pCMV6-XL5 containing hURAT1 cDNA (Cat. No. SC125624) and the expression vector pCMV6-Neo (Cat. No. pCMVNEO) were obtained from OriGene Technologies, Inc. The full-length hURAT1 cDNA was obtained from the vector pCMV6-XL5 and subcloned into the expression vector pCMV6-Neo to create the hURAT1 expression plasmid pCMV6-hURAT1. The sequences were verified by automatic DNA sequencing.
Cell Culture, Transfection of URAT1 Expressing Plasmids and the Establishment of Stably Expressing HEK Cells for hURAT1:
For transfection experiments, cells were plated on 60 mm dishes in 1 ml media per dish. […] Stable transfectants expressing hURAT1 (herein after referred as hURAT1-HEK cells) or cells having only the expression vector pCMV6-Neo (herein after referred as mock-HEK cells) were verified using reverse transcription polymerase chain reaction (RT-PCR) methods.
[8-^14C] Urate Uptake Assay:
Before the uptake assay started, the culture medium was removed and the cells were incubated for 5 min in 0.6 ml of HBSS. After that HBSS was removed, the prepared reaction solutions were added into each well and incubated for 5 min at room temperature. Then the reaction solution was removed, cells were washed twice with 0.6 ml of cold HBSS and lysed with 0.2 ml of 0.1 M NaOH for 20 min. […] Test compounds were dissolved in DMSO and the same concentration of DMSO was added into the wells of mock-HEK cells and the hURAT1-HEK cells that didn't contain test compounds. For each test compound, the uptake assay was performed 2 times and carried out in triplicate. Urate uptake of the cells for each test condition was presented as the average percent inhibition in comparison to the DMSO control. The radioactivity values obtained for the wells that contained DMSO were taken as 100% uptake of the cells. The observed concentration-percent inhibition data were fitted to a sigmoidal concentration-effect model, where: % Inhibition=(100*Conc^Slope)/(IC50^Slope+Conc^Slope)
In this example the compounds were not necessarily tested simultaneously.

[1] = Rat pilot single-dose oral pharmacokinetic study with Compound EC; format: in vivo; conditions: 100 mg/kg single oral gavage; for Compound EC concentration in plasma, individual rats: male Sprague-Dawley rat
Protocol: Rat Pilot Single-Dose Oral Pharmacokinetic Study with Compound EC
Determination of the Plasma Profile of Compound EC Following Single Oral Gavage Administration to Male Rats.
(§1) Test compound was suspended in 1% HPMC using a tissue homogenizer to minimize particles and maximize uniformity of the suspension and stored at 4° C. The formulations was thoroughly mixed just prior to administration. A dose of 100 mg/kg of test compounds or vehicle (1% HPMC) was administered to male Sprague-Dawley rats by single oral gavage. […] The blood samples were centrifuged within 30 minutes of collection under refrigeration (2-8° C.) for 7 minutes at 6000 rpm. Following centrifugation, the plasma were harvested into a single tube for each animal at each time point and immediately frozen at −80° C. until analyzed using LC/MS-MS. Serial plasma concentration time data was subjected to pharmacokinetic analyses using WinNonlin Standard (v2.1, Pharsight Corporation) and Microsoft EXCEL.
1. Rats received single oral gavage of Compound EC, 100 mg/kg, and plasma was collected at certain times.
(§2) 2. Plasma was stored at −80° C. until the day of analysis.
(§3) 3. Samples were thawed on 37° C. bath for 5 min and vortexed at top speed for 10 sec.
(§4) 4. Rat plasma, 0.1 mL was mixed with 0.2 mL Acetonitrile, vortexed 1 min, spun down 14000 rpm, 17000 g, at 4° C., for 25 min.
(§5) 5. Supernatants were filtered through 0.45 micron, 4 mm, PTFE membrane syringe filter (Phenomenex # AF0-3102-52), and 15 microL were injected and resolved on Luna 3 micron, 100 A pore, C8(2), 150×3 mm, reverse phase column (Phenomenex#00F-4248-YO, SN#259151-7) in 50 min linear gradient from 40% to 69% of (0.1% Formic Acid, 89.9% Acetonitrile, 10% Methanol) at 0.25 mL/min, 107 bar, 37° C. column temperature, method 406975M1, AGILENT sequence 0226-09A, Agilent 1100 LC-MS.
(§6) All samples were run in duplicate, 210 nm and 230 nm Absorbances, Negative and Positive ionization spectrograms were recorded.
Step 1. Plasma from “Vehicle” animals (pooled), 0.19 mL, was mixed with 0.01 mL 20× stock of Compound EC in Methanol to make 500 microM, 250 microM, 125 microM, concentrations of Compound EC in plasma.
For example: 190 microL plasma+10 microL of 10 mM Compound EC in methanol=0.2 mL plasma with 500 microM Compound EC.
(§7) Step 2. Samples from step 1 were vortexed for 10 sec at top speed.
(§8) Step 3. 0.4 mL of acetonitrile was added to all samples from Step 2, and all vials were vortexed at top speed for 1 min.
(§9) Step 4. All samples from step 3 were spun down 14000 rpm, 17000 g, at 4° C., for 25 min.
as §5, with “Step 5.” for “5.”, “AF0-3102-52),” for “AF0-3102-52), and”, “temperature. All samples were run in duplicate, 210 nm and 230 nm Absorbances, Negative and Positive ionization spectrograms were recorded.” for “temperature, method 406975M1, AGILENT sequence 0226-09A, Agilent 1100 LC-MS.”

[2] = Rat pilot single-dose oral pharmacokinetic study with Compound EG; format: in vivo; conditions: 100 mg/kg single oral gavage; for Concentration of Compound EG in rat plasma, individual rats: male Sprague-Dawley rat
Protocol: Rat Pilot Single-Dose Oral Pharmacokinetic Study with Compound EG
Determination of the Plasma Profile of Compound EG Following Single Oral Gavage Administration to Male Rats.
as §1
1. Rats received single oral gavage of Compound EG, 100 mg/kg, and plasma was collected at certain times.
as §2, §3, §4, §5, §6
Step 1. Plasma from “Vehicle” animals (pooled), 0.19 mL, was mixed with 0.01 mL 20× stock of Compound EG in Methanol to make 500 microM, 250 microM, 125 microM, . . . , concentrations of Compound EG in plasma.
For example: 190 microL plasma+10 microL of 10 mM Compound EG in methanol=0.2 mL plasma with 500 microM Compound EG.
as §7, §8, §9
as §5, with “Step 5.” for “5.”, “AF0-3102-52),” for “AF0-3102-52), and”, “temperature. All samples were run in duplicate, 210 nm and 230 nm Absorbances, Negative and Positive ionization spectrograms were recorded.” for “temperature, method 406975M1, AGILENT sequence 0226-09A, Agilent 1100 LC-MS.”

[3] = Sprague-Dawley, rat, male rats, plasma
[4] = Sprague-Dawley, rat, male rats, plasma, read-out: AUC0-24
[5] = male, Sprague-Dawley, rat, plasma, 0 HR
[6] = male, Sprague-Dawley, rat, plasma, 0.25 HR
[7] = male, Sprague-Dawley, rat, plasma, 0.5 HR
[8] = male, Sprague-Dawley, rat, plasma, 1 HR
[9] = male, Sprague-Dawley, rat, plasma, 2 HR
[10] = male, Sprague-Dawley, rat, plasma, 4 HR
[11] = male, Sprague-Dawley, rat, plasma, 6 HR
[12] = male, Sprague-Dawley, rat, plasma, 8 HR
[13] = male, Sprague-Dawley, rat, plasma, 24 HR

Structure (SMILES): COc1ccc(Cc2nnn[nH]2)cc1OCc1c(C)cccc1C [ED, 5-(3-(2,6-Dimethylbenzyloxy)-4-methoxybenzyl)-1H-tetrazole]
- inhibition at 10 µM (human URAT1): 96%
- pIC50 (human URAT1): 6.60

Structure (SMILES): Cc1cccc(C)c1COc1cccc(Cc2nnn[nH]2)c1 [Compound EC, 5-(3-(2,6-Dimethylbenzyloxy)benzyl)-1H-tetrazole]
- inhibition at 10 µM (human URAT1): 95.2%
- pIC50 (human URAT1): 6.62
- Cmax [1, 3]: 61000 ng/mL
- AUC(0-t) [1, 4]: 672 µg·h/mL
- Compound EC concentration in plasma, individual rats ([1]; 0.25 HR): 114 µM and 67 µM
- Compound EC concentration in plasma, individual rats ([1]; 0.5 HR): 45 µM and 25 µM
- Compound EC concentration in plasma, individual rats ([1]; 1 HR): 17 µM and 222 µM
- Compound EC concentration in plasma, individual rats ([1]; 2 HR): 384 µM and 29 µM
- Compound EC concentration in plasma, individual rats ([1]; 4 HR): 35 µM and 11 µM
- Compound EC concentration in plasma, individual rats ([1]; 6 HR): 85 µM and 73 µM and 62 µM
- Compound EC concentration in plasma, individual rats ([1]; 8 HR): 107 µM and 262 µM
- Compound EC concentration in plasma, individual rats ([1]; 24 HR): 0 µM
- concentration at 0 h [1, 5]: 0 ng/mL
- concentration at 0.25 h [1, 6]: 27000 ng/mL
- concentration at 0.5 h [1, 7]: 10000 ng/mL
- concentration at 1 h [1, 8]: 35000 ng/mL
- concentration at 2 h [1, 9]: 61000 ng/mL
- concentration at 4 h [1, 10]: 7000 ng/mL
- concentration at 6 h [1, 11]: 22000 ng/mL
- concentration at 8 h [1, 12]: 54000 ng/mL
- concentration at 24 h [1, 13]: 0 ng/mL
- Detection in plasma (in words) ([1]; rat, LC-MS): readily detected

Structure (SMILES): Fc1cccc(F)c1COc1ccc(Cc2nnn[nH]2)cc1 [BD, 5-(4-(2,6-Difluorobenzyloxy)benzyl)-1H-tetrazole]
- inhibition at 10 µM (human URAT1): 56.6%

Structure (SMILES): Cc1ccc(Cc2nnn[nH]2)cc1OCc1c(C)cccc1C [Compound EG, 5-(3-(2,6-Dimethylbenzyloxy)-4-methylbenzyl)-1H-tetrazole]
- inhibition at 10 µM (human URAT1): 95.6%
- pIC50 (human URAT1): 6.89
- Cmax [2, 3]: 22000 ng/mL
- AUC(0-t) [2, 4]: 94.9 µg·h/mL
- Concentration of Compound EG in rat plasma, individual rats ([2]; 0.25 HR): 19 µM and 27 µM
- Concentration of Compound EG in rat plasma, individual rats ([2]; 0.5 HR): 29 µM and 18 µM
- Concentration of Compound EG in rat plasma, individual rats ([2]; 1 HR): 101 µM and 42 µM
- Concentration of Compound EG in rat plasma, individual rats ([2]; 2 HR): 25 µM and 50 µM
- Concentration of Compound EG in rat plasma, individual rats ([2]; 4 HR): 14 µM and 23 µM
- Concentration of Compound EG in rat plasma, individual rats ([2]; 6 HR): 10 µM and 17 µM
- Concentration of Compound EG in rat plasma, individual rats ([2]; 8 HR): 5 µM and 19 µM
- Concentration of Compound EG in rat plasma, individual rats ([2]; 24 HR): 2 µM and 0 µM
- concentration at 0 h [2, 5]: 0 ng/mL
- concentration at 0.25 h [2, 6]: 7000 ng/mL
- concentration at 0.5 h [2, 7]: 7000 ng/mL
- concentration at 1 h [2, 8]: 22000 ng/mL
- concentration at 2 h [2, 9]: 12000 ng/mL
- concentration at 4 h [2, 10]: 6000 ng/mL
- concentration at 6 h [2, 11]: 4000 ng/mL
- concentration at 8 h [2, 12]: 4000 ng/mL
- concentration at 24 h [2, 13]: 0 ng/mL
- Detection in plasma (in words) ([2]; rat, LC-MS): readily detected

Structure (SMILES): Cc1cccc(C)c1COc1cccc(CCc2nnn[nH]2)c1 [EF, 5-(3-(2,6-Dimethylbenzyloxy)phenethyl)-1H-tetrazole]
- inhibition at 10 µM (human URAT1): 92%
- pIC50 (human URAT1): 6.13

More lines, now with the values ahead:

- inhibition at 10 µM (human URAT1): 80%
Structure (SMILES): Cc1cccc(C)c1COc1cccc(Cc2nnn[nH]2)c1C [EH, 5-(3-(2,6-Dimethylbenzyloxy)-2-methylbenzyl)-1H-tetrazole]

- inhibition at 10 µM (human URAT1): 44%
Structure (SMILES): COc1c(Cc2nnn[nH]2)cccc1OCc1c(C)cccc1C [EI, 5-(3-(2,6-Dimethylbenzyloxy)-2-methoxybenzyl)-1H-tetrazole]
